Data: PubChem BioAssay (NCI)
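Cultured in 96-well plates, cells were exposed to test compound for 48 hours across five concentrations. GI50 = concentration required for 50% inhibition of growth. At the TGI there is no net growth.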

Legend:
Assay in all cases: inhibition of tumour cell growth, NCI panel, 48 h
[1] = tested on: 786-0 renal
[2] = tested on: EKVX NSCLC
[3] = tested on: HCT-116 colon
[4] = tested on: KM12 colon
[5] = tested on: NCI-H226 lung
[6] = tested on: OVCAR-3 ovarian
[7] = tested on: OVCAR-4 ovarian
[8] = tested on: SK-MEL-5 melanoma
[9] = tested on: SW-620 colon
[10] = tested on: SNB-75 CNS

Compound | GI50 [1] [nM] | TGI [1] [µM] | GI50 [2] [nM] | TGI [2] [µM] | GI50 [3] [µM] | TGI [3] [µM] | GI50 [4] [µM] | TGI [4] [µM] | GI50 [5] [µM] | TGI [5] [µM] | GI50 [6] [µM] | TGI [6] [µM] | GI50 [7] [µM] | TGI [7] [µM] | GI50 [8] [µM] | TGI [8] [µM] | GI50 [9] [nM] | TGI [9] [µM] | GI50 [10] [µM] | TGI [10] [µM]
CCN1C(=O)N(CC)C2C1NC(=S)N2/N=C/C=C/c1ccccc1 (centres undefined) | 158 | > 100 | 634 | > 100 | 0.106 | > 100 | 0.0924 | > 100 | 0.383 | > 100 | 0.0425 | > 100 | 3.31 | > 100 | 0.145 | 11.3 | 72.6 | > 100 | – | –
NC(=O)c1nc(-c2c(F)cccc2Cl)oc1Nc1ccc(C(=O)N2CCOCC2)cc1 | 2180 | > 100 | 12200 | > 100 | 1.36 | 20 | 0.326 | > 100 | 0.266 | > 100 | 10.3 | > 100 | 28.4 | > 100 | 10.5 | 35.8 | 703 | > 100 | – | –
CCOC(=O)c1cn(C)c2c(OC)c3ccccc3c(OC)c2c1=O | > 100000 | > 100 | – | – | 19.6 | 38.5 | 19.7 | 48.3 | 23.8 | 57.1 | 5.62 | 25.7 | 42.1 | > 100 | – | – | – | – | > 100 | > 100
Cc1nc2sccn2c1C(=O)NNC(N)=S | – | > 100 | – | > 100 | – | > 100 | – | > 100 | – | > 100 | – | > 100 | – | – | – | > 100 | – | > 100 | – | –
COC(=O)[C@]12CC[C@@H](C)[C@H](C)[C@@H]1C1=CC[C@@H]3[C@@]4(C)C(C=O)=C[C@@](C)(COS(C)(=O)=O)C4=CC[C@@]3(C)[C@]1(C)CC2 | 189 | 0.415 | 315 | 1.34 | 0.16 | 0.321 | – | – | 0.232 | 0.635 | 0.183 | 0.359 | – | – | 0.175 | 0.333 | 209 | 0.484 | 0.161 | 0.61
Cc1ccc2ccc3c4ccccc4ccc3c2c1 | 24400 | 69.8 | – | – | 31.2 | > 100 | 21.6 | 68.5 | 30.3 | > 100 | 25.5 | 67.6 | 17 | > 100 | 27.6 | 92.9 | 25900 | > 100 | 39.3 | > 100
C/C(CCN(C)C)=N/O | – | 13.2 | – | 28.8 | – | 12.5 | – | 25.5 | – | 63.9 | – | 2.04 | – | – | – | 24.3 | – | 6.71 | – | 33
O=C1c2cccc3c(N4CCOCC4)ccc(c23)C(=O)N1CCN1CCN(CCCCCN2CCN(CCN3C(=O)c4cccc5c(N6CCOCC6)ccc(c45)C3=O)CC2)CC1 | 55800 | > 100 | > 100000 | > 100 | 33.8 | > 100 | – | – | 87.3 | > 100 | 84.5 | > 100 | > 100 | > 100 | 57.2 | > 100 | 70800 | > 100 | > 100 | > 100
